Assay results as given in patent EP0604800A1, “4- 4- 4-(carboxyalkyl)-phenyl amino carbonyl -phenyl -piperedines as aggregation inhibitors” (Dr. Karl Thomae GmbH, priority 1992, dated 1994).
Structures can show the parent of a compound that is named as a salt.

How the values were obtained:
[1] = tested on: Collagen-induzierte Thrombozytenaggregation; assay: Ex vivo inhibition of collagen-induced platelet aggregation after oral administration; format: in vivo, Rhesusaffen; conditions: 1 mg/kg, Rhesus monkeys, collagen 2 µg/ml
Text: Die Hemmung der Thrombozytenaggregation nach oraler Gabe der Prüfsubstanz wird ex vivo an Rhesusaffen ermittelt.
Direkt vor der oralen Verabreichung der in Natrosol suspendierten Prüfsubstanz wird den Tieren eine Blutprobe aus der Kubitalvene als Referenzwert entnommen. Zu definierten Zeiten nach der Substanzgabe werden erneut Blutproben gewonnen und wie folgt untersucht.
Das mit 3,14% Natriumcitrat im Volumenverhältnis 1:10 versetzte Vollblut wird mit 200 g für 15 Minuten zentrifugiert. Der Überstand an plättchenreichem Plasma wird vorsichtig abgehoben. Aus dem erythrozytenreichen Sediment wird durch Zentrifugation mit 4000 g für 10 Minuten das plättchenarme Plasma als Überstand gewonnen.
Die mit Collagen (Hormonchemie, München; 2 µg/ml Endkonzentration im plättchenreichen Plasma) ausgelöste Thrombozytenaggregation in diesen ex vivo Proben wird nach der Methode von Born und Cross (J. Physiol. 170, 397 (1964)) photometrisch gemessen. Die nach Collagenstimulation gemessene größte Lichtdurchlässigkeit des plättchenreichen Plasmas wird mit dem Referenzwert verglichen, um die Hemmung der Aggregation zu den verschiedenen Zeitpunkten der Blutentnahme nach Substanzgabe relativ zum Referenzwert zu bestimmen.

Thrombozytenaggregation = assay: Collagen-induced platelet aggregation in platelet-rich plasma (Born and Cross); format: cell-based, Versuchspersonen; conditions: 10 min preincubation at 37°C, half-maximal inhibition of change in optical density, read-out: Hemmung der Plättchenaggregation EC₅₀ (converted)
Text: 2. Antithrombotische Wirkung Methodik Die Thrombozytenaggregation wird nach der Methode von Born und Cross (J. Physiol. 170, 397 (1964)) in plättchenreichem Plasma gesunder Versuchspersonen gemessen. Zur Gerinnungshemmung wird das Blut mit Natriumcitrat 3,14 % im Volumenverhältnis 1:10 versetzt. Collagen-induzierte Aggregation Der Verlauf der Abnahme der optischen Dichte der Plättchen-Suspension wird nach Zugabe der aggregationsauslösenden Substanz photometrisch gemessen und registriert. Aus dem Neigungswinkel der Dichtekurve wird auf die Aggregationsgeschwindigkeit geschlossen. Der Punkt der Kurve, bei dem die größte Lichtdurchlässigkeit vorliegt, dient zur Berechnung der "optical density". Die Collagen-Konzentration wird möglichst gering gewählt, aber doch so, daß sich eine irreversibel verlaufende Reaktionskurve ergibt. Verwendet wird das handelsübliche Collagen der Firma Hormonchemie, München. Vor der Collagen-Zugabe wird das Plasma jeweils 10 Minuten mit der Substanz bei 37°C inkubiert. Aus den Konzentrations-Wirkungskurven wird die EC₅₀ berechnet, die die Konzentration beschreibt, bei der die Änderung der "optical density" halbmaximal gehemmt ist.

[2] = Tolerability after intravenous administration to mice; format: in vivo, Mäusen; conditions: 30 mg/kg, 3 mice each
Humanthrombozyten = assay: Competitive binding of ³H-BIBU 52 / test substance to human platelets; conditions: platelet suspension in plasma, ³H-BIBU 52 5 nM, 20 min at room temperature; read-out: Kompetitive Bindung ³H-BIBU 52/Textsubstanz an Humanthrombozyten IC₅₀ (converted)
Text: 1. Kompetitive Bindung ³H-BIBU 52/Testsubstanz an Humanthrombozyten:
Eine Suspension von Humanthrombozyten in Plasma wird mit ³H-BIBU 52 [= (3S,5S)-5-[(4'-Amidino-4-biphenylyl)oxymethyl]-3-[(carboxyl)methyl]-2-pyrrolidinon[3-³H-4-biphenylyl]), das den literaturbekannten Liganden ¹²⁵ I-Fibrinogen ersetzt, (siehe deutsche Patentanmeldung P 42 14 245.8 der gleichen Anmelderin vom 30. 04. 1992, internes Zeichen: Case 5/1093-FL) und verschiedenen Konzentrationen der zu testenden Substanz inkubiert. Der freie und gebundene Ligand wird durch Zentrifugation getrennt und durch Szintillationszählung quantitativ bestimmt. Aus den Meßwerten wird die Hemmung der ³H-BIBU 52-Bindung durch die Testsubstanz bestimmt.
Hierzu wird aus einer Antikubitalvene Spenderblut entnommen und mit Trinatriumzitrat antikoaguliert (Endkonzentration 13 mM). Das Blut wird 10 Minuten bei 170 x g zentrifugiert und das überstehende plättchenreiche Plasma (PRP) abgenommen. Das Restblut wird zur Gewinnung von Plasma nocheinmal scharf abzentrifugiert. Das PRP wird mit autologem Plasma 1:10 verdünnt. 750 µl werden mit 50 µl physiologischer Kochsalzlösung, 100 µl Testsubstanzlösung, 50 µl ¹⁴C-Sucrose (3.700 Bq) und 50 µl ³H-BIBU 52 (Endkonzentration: 5 nM) bei Raumtemperatur 20 Minuten inkubiert. Zur Messung der unspezifischen Bindung wird anstelle der Testsubstanz 5 µl BIBU 52 (Endkonzentration: 30 µM) eingesetzt. Die Proben werden 20 Sekunden bei 10000 x g zentrifugiert und der Überstand abgezogen. 100 µl hiervon werden zur Bestimmung des freien Liganden gemessen. Das Pellet wird in 500 µl 0,2N NaOH gelöst, 450 µl werden mit 2 ml Szintillator und 25 µl 5N HCl versetzt und gemessen. Das im Pellet noch verbliebene Restplasma wird aus dem ¹⁴C-Gehalt bestimmt, der gebundene Ligand aus der ³H-Messung. Nach Abzug der unspezifischen Bindung wird die Pelletaktivität gegen die Konzentration der Testsubstanz aufgetragen und die Konzentration für eine 50%ige Hemmung der Bindung ermittelt.

SMILES | EC50 (Thrombozytenaggregation) | IC50 (Humanthrombozyten) | Dauer der Hemmung der Collagen-induzierten Thrombozytenaggregation ex vivo [1] | gestorbene Tiere [2]
CCCCS(=O)(=O)NC(Cc1ccc(NC(=O)c2cccc(C3CCNCC3)c2)cc1)C(=O)OC.Cl (stereo not shown) [5(2), 4-[3-[[4-[2-(n-Butansulfonylamino)-2-(methoxycarbonyl)-ethyl]-phenyl]-aminocarbonyl]-phenyl]-piperidin-hydrochlorid] |  |  | > 2 Stunden | 
COC(=O)CC[C@H]1CC[C@H](NC(=O)c2ccc(C3CCNCC3)cc2)CC1.Cl [Beispiel 2, 4-[4-[[trans-4-[2-(Methoxycarbonyl)-ethyl]-cyclohexyl]-aminocarbonyl]-phenyl]-piperidin-hydrochlorid] | 840 nM | 1100 nM | > 2 Stunden | keine Tieren gestorben
COC(=O)CCc1ccc(NC(=O)c2ccc(C3CCNCC3)cc2)cc1 [Beispiel 2.1, 4-[4-[[4-[2-(Methoxycarbonyl)-ethyl]-phenyl]-aminocarbonyl]-phenyl]-piperidin-hydrochlorid] | 3300 nM | > 100000 nM |  | 
CCCCS(=O)(=O)NC(Cc1ccc(NC(=O)c2ccc(C3CCNCC3)cc2)cc1)C(=O)OC (stereo not shown) [Beispiel 2.2, 4-[4-[[4-[2-(n-Butansulfonylamino)-2-(methoxycarbonyl)-ethyl]-phenyl]-aminocarbonyl]-phenyl]-piperidin-hydrochlorid] | 3300 nM | 4500 nM |  | 
Cl.O=C(O)CC[C@H]1CC[C@H](NC(=O)c2ccc(C3CCNCC3)cc2)CC1 [Beispiel 3, 4-[4-[[trans-4-(2-Carboxy-ethyl)-cyclohexyl]-aminocarbonyl]-phenyl]-piperidin-hydrochlorid] | 260 nM | 190 nM |  | keine Tieren gestorben
COC(=O)CC[C@H]1CC[C@H](NC(=O)c2cccc(C3CCNCC3)c2)CC1 [Beispiel 5, 4-[3-[[trans-4-[2-(Methoxycarbonyl)-ethyl]-cyclohexyl]-aminocarbonyl]-phenyl]-piperidin-hydrochlorid] | 5600 nM | 2900 nM |  | 

The next lines start with results.

EC50 (Thrombozytenaggregation) | IC50 (Humanthrombozyten) | SMILES | Dauer der Hemmung der Collagen-induzierten Thrombozytenaggregation ex vivo [1] | gestorbene Tiere [2]
2400 nM | 1400 nM | O=C(O)CCc1ccc(NC(=O)c2ccc(C3CCNCC3)cc2)cc1 [Beispiel 3.1, 4-[4-[[4-(2-Carboxy-ethyl)-phenyl]-aminocarbonyl]-phenyl]-piperidin-hydrochlorid] |  | 
260 nM | 17 nM | CCCCS(=O)(=O)NC(Cc1ccc(NC(=O)c2ccc(C3CCNCC3)cc2)cc1)C(=O)O (stereo not shown) [Beispiel 3.3, 4-[4-[[4-[2-(n-Butansulfonyl-amino)-2-carboxy-ethyl]-phenyl]-aminocarbonyl]-phenyl]-piperidin-hydrochlorid] |  | 
5800 nM | 2000 nM | O=C(O)CC[C@H]1CC[C@H](NC(=O)c2cccc(C3CCNCC3)c2)CC1 [Beispiel 3.4, 4-[3-[[trans-4-(2-Carboxy-ethyl)-cyclohexyl]-aminocarbonyl]-phenyl]-piperidin-hydrochlorid] |  | 
120 nM | 14 nM | CCCCS(=O)(=O)NC(Cc1ccc(NC(=O)c2cccc(C3CCNCC3)c2)cc1)C(=O)O (stereo not shown) [Beispiel 3.6, 4-[3-[[4-[2-(n-Butansulfonylamino)-2-carboxy-ethyl]-phenyl]-aminocarbonyl]-phenyl]-piperidin-hydrochlorid] |  | 
